{"source": "patent US20050042688A1", "about": "“Cellular analysis” (priority 2003, published 2005)", "system": "T cells", "settings": "whole blood collected in EDTA versus heparin as anticoagulant, 37° C., activated with PDBu/ionomycin", "protocol": "In this example, whole blood was collected from a donor in collection tubes containing heparin (curve 1) or EDTA (curve 2), respectively, as the anticoagulants. Blood samples were then incubated at 37° C. and activated with phorbol ester and a calcium ionophore (PDBu/I, phorbol-12,13-dibutyrate/ionomycin)."}
{"compound": "O=C(O)CN(CCN(CC(=O)O)CC(=O)O)CC(=O)O", "note": "[EDTA]", "values": [{"measurement": "responsiveness of T-cells (level of inducible actin polymerization by PDBu/I)", "result": "dramatic decrease in the responsiveness of T-cells"}]}
